Measurements as given in PubChem BioAssay (NCI).
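The compound was tested at five concentrations on cells cultured in 96-well plates, with a 48-hour exposure period. TGI marks complete inhibition of growth.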

How the values were obtained:
Experiment in all cases: growth of human tumour cells (NCI), 48 h
EKVX NSCLC = test system: EKVX NSCLC
IGROV1 ovarian = test system: IGROV1 ovarian
K-562 leukemia = test system: K-562 leukemia
MALME-3M melanoma = test system: MALME-3M melanoma
NCI-H226 lung = test system: NCI-H226 lung
SNB-75 CNS = test system: SNB-75 CNS
SK-MEL-2 melanoma = test system: SK-MEL-2 melanoma
CCRF-CEM leukemia = test system: CCRF-CEM leukemia

| SMILES | TGI (EKVX NSCLC) [µM] | TGI (IGROV1 ovarian) [µM] | TGI (K-562 leukemia) [µM] | TGI (MALME-3M melanoma) [µM] | TGI (NCI-H226 lung) [µM] | TGI (SNB-75 CNS) [µM] | TGI (SK-MEL-2 melanoma) [µM] | TGI (CCRF-CEM leukemia) [µM] |
| --- | --- | --- | --- | --- | --- | --- | --- | --- |
| COc1ccc2cc(C(C)C(=O)N3C(=O)OCC3(C)C)ccc2c1 (centres undefined) | > 100 | > 100 | > 100 | > 100 | > 100 | > 100 |  |  |
| C[C@H](C1CC2(C)OC2(C)C(=O)O1)[C@H]1CC[C@H]2[C@@H]3[C@@H]4O[C@@H]4[C@@]4(O)CC=CC(=O)[C@]4(C)[C@H]3CC[C@]12C (some centres undefined) | > 50 | > 50 | > 50 |  | > 50 | 19.8 | > 50 |  |
| Cc1nc(-c2cc3ccccc3oc2=O)cs1 | > 100 | > 100 | > 100 | > 100 | > 100 |  | > 100 | > 100 |
| COC(=O)Nc1nc2ccc(NC(=O)c3ccc(I)cc3)cc2[nH]1 | > 100 | > 100 | > 100 | > 100 | > 100 | > 100 | > 100 | > 100 |
| COc1cc(N(CCC#N)CCC#N)ccc1/C=N\NC(=O)c1ccc(C)cc1 | > 100 | > 100 | > 100 | > 100 | > 100 | > 100 | 32.6 | > 100 |
| O=c1[nH]nc(Cc2ccc(Cl)cc2)n1/N=C/c1ccc([N+](=O)[O-])o1 | 13.8 | 11.2 | > 31 | 3.31 | 43.3 | 31.1 | 12.4 | > 37 |
| CC(=O)OCC1OC(n2c(C)c(C)c(C)c(C#N)c2=S)C(OC(C)=O)C(OC(C)=O)C1OC(C)=O (centres undefined) | 94.3 | > 100 | > 100 | > 100 | > 100 | > 100 | 78.2 | > 100 |
| Cc1cc(-c2nc3cccc(O)c3s2)ccc1N | > 100 | > 100 | > 100 |  | > 100 | > 100 | > 100 | 65.2 |
| O=C(OCc1ccccc1)N1CCNCCNCCN(C(=O)OCc2ccccc2)CCNCC1 | 65.1 | 91.3 | 29.8 | 36.5 | > 100 | 53 | 32.9 | 65.9 |
| O=[N+]([O-])/C(C(Cl)=C(Cl)Cl)=C(/Nc1cccc2cccnc12)n1nnc2ccccc21 | > 100 |  | > 100 | 19.7 | 67.4 | 67.8 | 33.5 | > 100 |
| COC(NC(=O)Nc1ccccc1C)(C(F)(F)F)C(F)(F)F |  | > 100 | > 100 |  | > 100 | > 100 |  | > 100 |
| Cc1cc(S(=O)(=O)/N=C(/NN)Nc2ccc(Cl)cc2)c(S)cc1Cl | 29.3 | 39.7 | > 100 | 37.1 | 43.3 | 28.8 | 76.9 | 94 |
| O=c1[nH]c(=O)n(C2OC(CO)C(O)C2O)cc1OCCCc1ccccc1 (centres undefined) | > 100 | > 100 |  | > 100 | > 100 |  | > 100 | > 100 |
| C#CCOC(=O)c1ccc(OC(C)=O)cc1 | > 100 | > 100 | > 100 |  | > 100 | > 100 | > 100 | > 100 |
| NC(=O)CN1C=CCC(C(N)=O)=C1 | > 100 | > 100 | > 100 | > 100 | > 100 | > 100 | > 100 | > 100 |
| Cc1c([C@H](C)[C@@H]2NC[C@@H](C)C[C@H]2O)ccc2c1C[C@H]1[C@H]2CC=C2C[C@@H](O)CC[C@@]21C | 8.53 | 43.9 | 40.6 | 36.5 | 38.1 | 51.7 |  | 38.4 |
| CC(C)=CCC[C@@H](C)C1=C(O)C(Nc2ccccc2I)=C(C)C(=O)C1=O | > 75 | 17.9 | > 66.8 | 29.8 | 18.4 | 37.1 | 29.4 | > 20.9 |
| COC1=CC(=O)N(C)C(O)C1(C#N)OC1OC(CO)C(O)C(O)C1O (centres undefined) | > 100 | > 100 | > 10 |  | > 100 | > 100 | > 100 | > 10 |
| CC1(C)C=C(/C=N/Nc2ccccc2)C(C#N)=C(O)C1(C#N)C#N | > 100 | > 100 | > 100 | > 100 | > 100 | > 100 |  | > 100 |
| Clc1ccc(C2=CCN3CC=C(c4ccc(Cl)cc4)C23)cc1 | 31.6 | 21.9 | 45.2 | 27.3 | 43.2 |  | 29.6 | 52 |
| Oc1ccc(Oc2cc3c(cc2Oc2ccc(O)cc2)-c2nc-3nc3[nH]c(nc4nc(nc5[nH]c(n2)c2cc(Oc6ccc(O)cc6)c(Oc6ccc(O)cc6)cc52)-c2cc(Oc5ccc(O)cc5)c(Oc5ccc(O)cc5)cc2-4)c2cc(Oc4ccc(O)cc4)c(Oc4ccc(O)cc4)cc32)cc1 | > 100 | > 100 | > 100 | 47 | > 100 | > 100 |  | > 100 |
| CCSC1=CC2(O)N(CCc3ccc(OC)c(OC)c3)C(=O)CC2(C(=O)OC)CC1=O (centres undefined) | > 100 | 33.6 | > 100 |  | > 100 |  | 38.9 | > 100 |
| O=C1NC(N2CCOCC2)=N/C1=C\c1ccc(O)cc1 | > 100 | > 100 |  | > 100 | > 100 | > 100 | > 100 | > 100 |
| O=C1/C(=C/c2cccc3ccccc23)CCc2ccc([N+](=O)[O-])cc21 | > 100 | > 100 | > 100 | > 100 | > 100 | 42.1 |  | > 100 |
| CC1CCC2(OC1)OC1C(O)C3C4CCC5CC(OC6OC(CO)C(OC7OC(CO)C(O)C(OC8OCC(O)C(O)C8O)C7OC7OC(CO)C(O)C(OC8OC(CO)C(O)C(O)C8O)C7O)C(O)C6O)C(O)CC5(C)C4CCC3(C)C1C2C (centres undefined) | 9.8 | 6.7 | > 100 |  | 3.33 | 7.76 | 17.8 | 10.5 |
| Cc1nc(Nc2ccccc2Cl)sc1C(=O)CC(=O)C(N)=O | > 100 | > 100 | > 100 |  | > 100 | 92.2 | > 100 | > 100 |
